Converted amounts (≈) assume the structure as drawn. Read-outs that look alike come from different tables or passages of the source.
Legend:
Escherichia coli = test: Antibacterial susceptibility testing (MIC/MBC), E. coli; format: cell-based; conditions: Escherichia coli; for MBC: read-out: MBC E. coli CFT 073; for MIC: read-out: MIC E. coli CFT 073
Protocol: (§1) Minimal inhibitory concentrations (MICs) were determined following a standard double-dilution method. […] For S. pneumoniae MICs were determined by adapting the standard double-dilution method to anaerobic conditions and of this microorganism (use of Todd Hewitt Yeast extract with 200 U/mL of catalase and continuous monitoring of growth).

E. coli PhoR (PhoR^E) = target: T1, E. coli PhoR (PhoR^E) (Escherichia coli, UniProt P08400); test: In vitro autophosphorylation kinase assay with γ-32P-ATP, PhoR^E; format: biochemical; conditions: for IC50: autophosphorylation, one time point (30 sec), 10% DMSO; for inhibition at 2000 µM: 2 mM, 30 sec, compared to negative control
T1 construct: The catalytic portion (DHp and CA domain) of E. coli PhoR (PhoR^E); made in house; host or cells: E. coli RIL
Protocol: (§2) To evaluate the inhibitory capacity of selected hits from DSF, SBVS and LBSS in vitro autophosphorylation kinase assays with γ-^32P-ATP were performed as previously described. Ligands were dissolved in 100% DMSO. […] Controls lacking ligands contained an equal concentration of DMSO. Inhibition of autophosphorylation was determined by incubating 0.12 mg/ml (≈4 μM) HK and up to 20 mM fragment in kinase buffer (50 mM Tris HCl, pH 8.5, 50 mM KCl, 5 mM MgCl2, 0.5 mM EDTA and 0.1 mM DTT). Autophosporylation reactions were initiated by addition of 0.1 μCi/μl γ-^32P-ATP containing from 0.03 to 0.06 μM ATP (final concentrations). Autophosphorylation was quenched with 2xSDS-PAGE sample buffer supplemented with 50 mM EDTA. […] After electrophoresis, the bottoms of the gels were removed to lower the background from the unincorporated radiolabeled ATP. Gels were dried without staining on a Bio-Rad Gel Air drying system and the phosphorylated protein was quantified by phosphor-imaging. Prism GraphPad was used for curve fitting and statistical analysis.

S. pneumoniae WalK = target: T2, S. pneumoniae WalK (Streptococcus pneumoniae, UniProt Q8DPL8); test: In vitro autophosphorylation kinase assay with γ-32P-ATP, WalK; format: biochemical; conditions: autophosphorylation, one time point (30 sec), 10% DMSO
T2 construct: WalK (amino acids from 208 to 449); N-terminal His6-3C site of vector pOPINF (own knowledge of the vector); made in house; host or cells: E. coli RIL
Protocol: as §2

Staphylococcus aureus = test: Antibacterial susceptibility testing (MIC/MBC), S. aureus; format: cell-based; conditions: for MBC / MIC: Staphylococcus aureus
Protocol: as §1

[1] = test system: Staphylococcus epidermidis; test: Antibacterial susceptibility testing (MIC/MBC), S. epidermidis; format: cell-based; conditions: Staphylococcus epidermidis
Protocol: as §1

[2] = Solubility in kinase buffer; format: physicochemical; conditions: kinase buffer in the presence of 10% DMSO
S. aureus PhoR (PhoR^S) = S. aureus PhoR (PhoR^S) (Staphylococcus aureus, UniProt Q2FXN7); test: In vitro autophosphorylation kinase assay with γ-32P-ATP, PhoR^S; format: biochemical; conditions: autophosphorylation, one time point (30 sec), 10% DMSO
Protocol: (§3) To evaluate the inhibitory capacity of selected hits from DSF, SBVS and LBSS in vitro autophosphorylation kinase assays with γ-^32P-ATP were performed as previously described. Ligands were dissolved in 100% DMSO. […] Controls lacking ligands contained an equal concentration of DMSO. Inhibition of autophosphorylation was determined by incubating 0.12 mg/ml (≈4 μM) HK and up to 20 mM fragment in kinase buffer (50 mM Tris HCl, pH 8.5, 50 mM KCl, 5 mM MgCl2, 0.5 mM EDTA and 0.1 mM DTT). Autophosporylation reactions were initiated by addition of 0.1 μCi/μl γ-^32P-ATP containing from 0.03 to 0.06 μM ATP (final concentrations). Autophosphorylation was quenched with 2xSDS-PAGE sample buffer supplemented with 50 mM EDTA. Samples were applied without heating to 15% (w/v) Tris-glycine SDS-polyacrylamide gels. After electrophoresis, the bottoms of the gels were removed to lower the background from the unincorporated radiolabeled ATP. Gels were dried without staining on a Bio-Rad Gel Air drying system and the phosphorylated protein was quantified by phosphor-imaging. Prism GraphPad was used for curve fitting and statistical analysis.

T. maritima HK853 = target: T3, T. maritima HK853 (Thermotoga maritima, UniProt Q9WZV7); test: In vitro autophosphorylation kinase assay with γ-32P-ATP, HK853; format: biochemical
T3 sequence (Q9WZV7 232-489): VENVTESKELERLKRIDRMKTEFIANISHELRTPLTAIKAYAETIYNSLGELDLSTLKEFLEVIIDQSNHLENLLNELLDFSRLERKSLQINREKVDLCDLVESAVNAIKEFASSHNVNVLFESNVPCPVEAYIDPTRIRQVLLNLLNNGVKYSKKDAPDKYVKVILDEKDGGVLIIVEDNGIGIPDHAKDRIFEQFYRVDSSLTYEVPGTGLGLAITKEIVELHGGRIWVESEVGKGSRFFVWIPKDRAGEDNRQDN
Protocol: as §3

[3] = DSM20231, read-out: MBC S. aureus DSM 20231
[4] = DSM20044, strain DSM 20044, read-out: MIC S. epidermidis DSM 20044
[5] = DSM20231, strain DSM 20231, read-out: MIC S. aureus DSM 20231
[6] = DSM20044, read-out: MIC S. epidermidis DSM 20044
[7] = DSM20231, read-out: MIC S. aureus DSM 20231

T1 sequence (P08400 210-425): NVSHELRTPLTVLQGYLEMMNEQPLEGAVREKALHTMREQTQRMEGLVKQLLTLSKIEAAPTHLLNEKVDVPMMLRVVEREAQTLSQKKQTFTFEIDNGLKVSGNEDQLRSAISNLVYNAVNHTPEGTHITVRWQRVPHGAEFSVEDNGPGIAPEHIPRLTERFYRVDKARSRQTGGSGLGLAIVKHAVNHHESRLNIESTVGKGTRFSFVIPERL
T2 sequence (Q8DPL8 208-449): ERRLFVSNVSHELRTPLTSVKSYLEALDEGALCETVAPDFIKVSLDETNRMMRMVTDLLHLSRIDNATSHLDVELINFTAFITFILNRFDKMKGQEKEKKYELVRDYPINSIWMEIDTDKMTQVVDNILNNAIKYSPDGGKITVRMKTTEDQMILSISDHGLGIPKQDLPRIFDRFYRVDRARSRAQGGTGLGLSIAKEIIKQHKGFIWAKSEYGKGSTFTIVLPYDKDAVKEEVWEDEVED
Sequence of S. aureus PhoR (PhoR^S) (Q2FXN7 entry or part of it): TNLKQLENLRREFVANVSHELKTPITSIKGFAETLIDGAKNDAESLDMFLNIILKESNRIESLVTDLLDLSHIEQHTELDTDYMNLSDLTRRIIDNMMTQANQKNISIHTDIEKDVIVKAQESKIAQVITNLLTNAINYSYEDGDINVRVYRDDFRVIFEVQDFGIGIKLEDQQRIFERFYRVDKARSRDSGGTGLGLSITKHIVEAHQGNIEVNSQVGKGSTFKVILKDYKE

| Compound | MIC (Escherichia coli; strain CFT 073) | IC50 (E. coli PhoR (PhoR^E); IC50 PhoR^E) | IC50 (S. pneumoniae WalK; IC50 WalK) | MIC [1, 4] | MIC (Staphylococcus aureus; [5]) | IC50 (S. aureus PhoR (PhoR^S); IC50 PhoR^S) | IC50 (T. maritima HK853) | other results |
| --- | --- | --- | --- | --- | --- | --- | --- | --- |
| Nc1nc(-c2ccc(O)cc2)cs1 [F1.1] |  |  |  |  |  |  |  | MBC (Escherichia coli): > 500 µg/mL; IC50 (E. coli PhoR (PhoR^E); read-out: IC50 PhoR^E): > 2 mM; IC50 (S. pneumoniae WalK; read-out: IC50 WalK): > 2 mM; MBC (Staphylococcus aureus; [3]): > 500 µg/mL |
| Nc1nc(-c2ccc(Cl)cc2)cs1 [F1.2] | > 500 µg/mL | > 2 mM | > 2 mM | > 500 µg/mL | > 500 µg/mL |  |  |  |
| Cc1ccc(-c2csc(N)n2)cc1 [F1.3] | > 500 µg/mL | > 2 mM | > 2 mM | 500 µg/mL (≈ 2630 µM) | > 500 µg/mL |  |  | MBC ([1]; DSM20044, strain DSM 20044): 500 µg/mL (≈ 2630 µM) |
| Nc1ncc(-c2ccc(Br)cc2)s1 [F1.4] | > 500 µg/mL | > 2 mM | > 2 mM | > 500 µg/mL | > 500 µg/mL |  |  |  |
| Nc1nnc(-c2ccc(Br)cc2)o1 [F1.5] | > 500 µg/mL | > 2 mM | > 2 mM | > 500 µg/mL | > 500 µg/mL |  |  |  |
| Brc1ccc(C2=CSC3=NCCN23)cc1 [F1.7] | > 500 µg/mL | > 2 mM | > 2 mM | > 500 µg/mL | > 500 µg/mL |  |  |  |
| COc1ccc(-c2csc(N)n2)cc1OC [F1.9] | > 500 µg/mL | > 2 mM | > 2 mM | > 500 µg/mL | > 500 µg/mL |  |  |  |
| CC(C)(C)c1ccc(OCc2c[nH]cn2)cc1 [F1.10] | > 500 µg/mL | > 2 mM | > 2 mM | > 500 µg/mL | > 500 µg/mL |  |  |  |
| Nc1ccc2c(c1)[nH]c1ccccc12 [F2.1] |  |  |  |  |  |  |  | MIC (Escherichia coli): > 500 µg/mL; inhibition at 2000 µM (E. coli PhoR (PhoR^E)): > 50%; IC50 (E. coli PhoR (PhoR^E); read-out: IC50 PhoR^E): 0.24 mM; solubility in kinase buffer [2]: good solubility; IC50 (S. pneumoniae WalK; read-out: IC50 WalK): > 2 mM; MIC [1, 6]: > 500 µg/mL; MBC (Staphylococcus aureus; [3]): > 500 µg/mL; MIC (Staphylococcus aureus; [7]): 8 µg/mL (≈ 43.9 µM) |
| O=c1c2ccccc2[nH]c2ccc(O)cc12 [F2.2] | > 500 µg/mL | < 2 mM | > 2 mM | > 500 µg/mL | > 500 µg/mL |  |  | inhibition at 2000 µM (E. coli PhoR (PhoR^E)): > 50% |
| c1ccc2c(c1)[nH]c1ccccc12 [F2.5] |  |  |  |  |  |  |  | MIC (Escherichia coli): > 500 µg/mL; IC50 (E. coli PhoR (PhoR^E); read-out: IC50 PhoR^E): > 2 mM; IC50 (S. pneumoniae WalK; read-out: IC50 WalK): > 2 mM; MIC [1, 6]: > 500 µg/mL; MIC (Staphylococcus aureus; [7]): > 500 µg/mL |
| Cn1c2ccccc2c2ccccc21 [F2.6] |  |  |  |  |  |  |  | MBC (Escherichia coli): 500 µg/mL (≈ 2760 µM); MIC (Escherichia coli): > 500 µg/mL; IC50 (E. coli PhoR (PhoR^E); read-out: IC50 PhoR^E): > 2 mM; IC50 (S. pneumoniae WalK; read-out: IC50 WalK): > 2 mM; MIC [1, 6]: > 500 µg/mL; MIC (Staphylococcus aureus; [7]): > 500 µg/mL |
| c1ccc2[nH]ccc2c1 [F2.7] |  |  |  |  |  |  |  | MIC (Escherichia coli): 500 µg/mL (≈ 4270 µM); IC50 (E. coli PhoR (PhoR^E); read-out: IC50 PhoR^E): > 2 mM; IC50 (S. pneumoniae WalK; read-out: IC50 WalK): > 2 mM; MIC [1, 6]: > 500 µg/mL; MBC (Staphylococcus aureus; [3]): > 500 µg/mL; MIC (Staphylococcus aureus; [7]): 500 µg/mL (≈ 4270 µM) |
| CCc1ccc2[nH]c3ccccc3c2c1 [F2.9] | > 500 µg/mL | < 2 mM | > 2 mM | > 500 µg/mL | > 500 µg/mL |  |  | inhibition at 2000 µM (E. coli PhoR (PhoR^E)): > 50%; MBC (Staphylococcus aureus; DSM20231, strain DSM 20231, read-out: MBC S. aureus DSM 20231): > 500 µg/mL |
| CC(=O)c1cccc(NC(=O)N(C)Cc2ccccc2)c1 [S1.25] | > 500 µg/mL | > 2 mM |  | > 500 µg/mL | > 500 µg/mL | > 2 mM |  |  |
| O=C(CCN1c2ccccc2Sc2ccccc21)OCc1cc(=O)n2ccsc2n1 [S1] | > 500 µg/mL | > 5 mM | > 5 mM | > 500 µg/mL | > 500 µg/mL | > 5 mM | > 5 mM |  |
| CC(OC(=O)c1cccc(S(=O)(=O)N2CCc3ccccc3C2)c1)C(=O)NC(N)=O (centres unmarked) [S2] | > 500 µg/mL | > 5 mM | > 5 mM | > 500 µg/mL | > 500 µg/mL | > 5 mM | > 5 mM |  |
| CC(NC(=O)C1CC(=O)N(c2ccccc2)C1)c1cccc(NC(=O)c2ccccc2)c1 (centres unmarked) [S3] | > 500 µg/mL | > 5 mM | > 5 mM | > 500 µg/mL | > 500 µg/mL | > 5 mM | > 5 mM |  |
| CNC(=O)NC(=O)CSc1nc2sc3c(c2c(=O)n1-c1ccccc1F)CCCC3 [S4] | > 500 µg/mL | > 5 mM | > 5 mM | > 500 µg/mL | > 500 µg/mL | > 5 mM | > 5 mM |  |
| c1ccc2cc(CNc3ccc4c(c3)OCCO4)ccc2c1 [S7] | > 500 µg/mL | > 5 mM | > 5 mM | > 500 µg/mL | > 500 µg/mL |  | > 5 mM | IC50 (S. aureus PhoR (PhoR^S); read-out: IC50 PhoR^S): < 5 mM; MBC S. aureus DSM 20231 (Staphylococcus aureus; strain DSM 20231): > 500 µg/mL |
| CC(NCc1cccc2ccccc12)c1ccc(F)cc1 (centres unmarked) [S8] | > 500 µg/mL | > 5 mM | > 5 mM | > 500 µg/mL | > 500 µg/mL |  | > 5 mM | IC50 (S. aureus PhoR (PhoR^S); read-out: IC50 PhoR^S): < 5 mM |
| CC(NCc1cccc2ccccc12)c1cccc(F)c1 (centres unmarked) [S9] | > 500 µg/mL | > 5 mM | > 5 mM | > 500 µg/mL | > 500 µg/mL | > 5 mM | > 5 mM |  |
| CC(NCc1cccc(F)c1)c1ccc2ccccc2c1 (centres unmarked) [S10] | > 500 µg/mL | > 5 mM | > 5 mM | > 500 µg/mL | > 500 µg/mL | > 5 mM | > 5 mM |  |
